Values of other authors as cited in patent publication US20080166406A1, “Rapidly Disintegrating Dosage Form Comprising Magnesium Carbonate Heavy” (priority 2005, published 2008).

Details: water, neutral pH, acidic pH; general statement

Which Solubility does the source give for Cc1cc2c(s1)Nc1ccccc1N=C2N1CCN(C)CC1 [Olanzapine] here?
The Solubility was “insoluble in water and neutral pH but more soluble at acidic pH”.
